Data reported in BindingDB's records for patent US11759530 (City of Hope, 2023).

How the values were obtained:
Assay in all cases: No assay
[1] = target: Mitogen-activated protein kinase 14 (Homo sapiens, UniProt Q16539)
[2] = target: Mitogen-activated protein kinase 11 (Homo sapiens, UniProt Q15759)
PIM2 = PIM2 (Homo sapiens, UniProt Q9P1W9)
PIM2, sequence (Q9P1W9 whole entry): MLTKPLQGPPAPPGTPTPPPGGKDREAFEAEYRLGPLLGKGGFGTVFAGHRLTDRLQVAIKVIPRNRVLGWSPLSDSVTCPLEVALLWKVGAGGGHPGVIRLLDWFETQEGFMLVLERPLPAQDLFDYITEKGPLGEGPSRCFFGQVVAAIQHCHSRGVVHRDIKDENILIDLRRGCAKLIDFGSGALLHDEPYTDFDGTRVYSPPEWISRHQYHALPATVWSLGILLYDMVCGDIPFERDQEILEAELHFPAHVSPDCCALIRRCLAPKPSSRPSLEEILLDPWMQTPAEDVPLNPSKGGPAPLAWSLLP

Mitogen-activated protein kinase 14, sequence (Q16539 whole entry): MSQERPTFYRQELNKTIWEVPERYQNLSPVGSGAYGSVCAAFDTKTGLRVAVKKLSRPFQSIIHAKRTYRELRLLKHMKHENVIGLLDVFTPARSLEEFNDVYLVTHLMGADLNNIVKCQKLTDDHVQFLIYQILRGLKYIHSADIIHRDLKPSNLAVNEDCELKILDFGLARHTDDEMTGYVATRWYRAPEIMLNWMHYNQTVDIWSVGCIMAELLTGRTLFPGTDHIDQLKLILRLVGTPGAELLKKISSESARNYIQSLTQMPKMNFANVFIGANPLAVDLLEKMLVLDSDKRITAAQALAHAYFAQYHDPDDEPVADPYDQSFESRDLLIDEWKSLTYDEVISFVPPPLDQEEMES
Mitogen-activated protein kinase 11, sequence (Q15759 whole entry): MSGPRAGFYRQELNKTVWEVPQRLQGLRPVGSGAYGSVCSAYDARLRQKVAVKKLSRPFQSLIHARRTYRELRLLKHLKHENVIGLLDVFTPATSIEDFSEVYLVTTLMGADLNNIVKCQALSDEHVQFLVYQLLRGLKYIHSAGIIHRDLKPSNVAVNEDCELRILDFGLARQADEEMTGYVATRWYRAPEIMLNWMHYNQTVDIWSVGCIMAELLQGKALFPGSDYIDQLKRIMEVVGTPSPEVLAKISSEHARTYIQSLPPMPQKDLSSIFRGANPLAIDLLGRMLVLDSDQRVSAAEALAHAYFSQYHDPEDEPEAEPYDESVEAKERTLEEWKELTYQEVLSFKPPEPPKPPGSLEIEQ

Row | Structure (SMILES) | IC50 [1] | IC50 [2] | IC50 (PIM2)
1 | O=S(=O)(c1c(O)c(Cl)cc(Cl)c1Cl)c1c(O)c(Cl)cc(Cl)c1Cl [HL-7] | 0.13 µM | 0.55 µM | –
2 | NC(=O)c1ccc(-c2nc(-c3ccc4c(c3)OCCO4)c(-c3ccccn3)[nH]2)cc1 [US11759530, Compound Table1.3] | 12000 µM | – | –
3 | O=c1c(O)c(-c2ccc(O)c(O)c2)oc2cc(O)c(O)c(O)c12 [US11759530, Compound Table1.8] | – | – | 3.45 µM
